Measured values: article PMC8343220, “The selectivity of α‐adrenoceptor agonists for the human α1A, α1B, and α1D‐adrenoceptors” (Pharmacology Research & Perspectives, 2021)

Legend:
[1] = molecular target: T1, human α1D‐adrenoceptor (full length) (Homo sapiens, UniProt P25100); assay: ^3H‐prazosin whole‐cell radioligand binding, CHO‐α1D cells; conditions: for Kd: CHO‐α1D cells; for Affinity selectivity ratio α1B vs α1D: higher affinity for α1D than α1B
T1 construct: human α1D‐adrenoceptor (full length) were used; expressed in transfected cells; host or cells: CHO-K1
T1 sequence (P25100 1-572): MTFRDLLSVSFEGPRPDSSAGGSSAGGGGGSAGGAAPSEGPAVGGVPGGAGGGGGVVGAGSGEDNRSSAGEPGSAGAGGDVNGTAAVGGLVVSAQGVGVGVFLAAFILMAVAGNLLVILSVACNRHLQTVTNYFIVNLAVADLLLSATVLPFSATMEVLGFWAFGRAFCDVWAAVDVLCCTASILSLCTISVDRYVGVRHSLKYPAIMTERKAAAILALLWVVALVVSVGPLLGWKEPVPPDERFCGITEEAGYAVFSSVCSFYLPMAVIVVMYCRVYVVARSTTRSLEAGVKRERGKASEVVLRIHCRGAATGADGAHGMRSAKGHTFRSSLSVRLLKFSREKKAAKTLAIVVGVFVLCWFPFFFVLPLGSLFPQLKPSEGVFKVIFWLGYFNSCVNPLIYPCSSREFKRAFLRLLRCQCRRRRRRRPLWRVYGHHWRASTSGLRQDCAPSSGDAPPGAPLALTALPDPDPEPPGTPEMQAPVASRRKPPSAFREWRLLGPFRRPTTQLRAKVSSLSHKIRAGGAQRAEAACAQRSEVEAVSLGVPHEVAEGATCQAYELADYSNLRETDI

[2] = test system: parental CHO cell line without any transfected receptors; assay: Forskolin‐stimulated cAMP accumulation, parent CHO cells without transfected receptors; type: cell-based, Chinese hamster; conditions: CHO cells without transfected receptors; in presence of forskolin
[3] = molecular target: T2, human α1B‐adrenoceptor (Homo sapiens, UniProt P35368); assay: ^3H‐prazosin whole‐cell radioligand binding, CHO‐α1B cells
T2 construct: expressed in transfected cells; host or cells: CHO-K1
T2 sequence (P35368 1-520): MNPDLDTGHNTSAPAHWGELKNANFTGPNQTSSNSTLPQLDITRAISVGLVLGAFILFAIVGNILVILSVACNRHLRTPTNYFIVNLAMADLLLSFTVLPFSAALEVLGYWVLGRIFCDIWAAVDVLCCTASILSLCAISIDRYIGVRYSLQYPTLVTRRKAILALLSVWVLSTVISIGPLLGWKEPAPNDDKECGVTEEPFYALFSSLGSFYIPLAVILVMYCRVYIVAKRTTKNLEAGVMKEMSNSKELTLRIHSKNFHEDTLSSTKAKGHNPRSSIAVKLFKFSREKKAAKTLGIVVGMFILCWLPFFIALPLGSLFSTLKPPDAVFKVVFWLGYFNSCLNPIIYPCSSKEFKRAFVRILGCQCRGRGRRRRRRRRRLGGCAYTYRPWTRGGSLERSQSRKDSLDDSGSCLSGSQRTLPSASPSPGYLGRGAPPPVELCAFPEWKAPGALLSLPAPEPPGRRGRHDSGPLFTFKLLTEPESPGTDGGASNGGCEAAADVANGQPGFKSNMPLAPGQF

[4] = molecular target: T1, human α1D‐adrenoceptor (full length); assay: Intracellular free calcium mobilization, CHO‐α1D cells; type: cell-based; conditions: CHO‐α1D cells; for Log efficacy ratio KD /EC50: intrinsic efficacy ratio, binding KD / calcium EC50; for EC50: log values given negative, read-out: Intracellular calcium release Log EC50 (converted); for Intracellular calcium release % ionomycin: maximal response as % of 10 µM ionomycin
[5] = molecular target: T3, human α1A‐adrenoceptor (Homo sapiens, UniProt P35348); assay: ^3H‐cAMP accumulation, CHO‐α1A cells; type: cell-based; conditions: CHO‐α1A cells; for EC50: 5 h, read-out: cAMP accumulation Log EC50 (converted); for cAMP accumulation % forskolin: % of 10 µM forskolin response
T3 construct: expressed in transfected cells; host or cells: CHO-K1
T3 sequence (P35348 1-466): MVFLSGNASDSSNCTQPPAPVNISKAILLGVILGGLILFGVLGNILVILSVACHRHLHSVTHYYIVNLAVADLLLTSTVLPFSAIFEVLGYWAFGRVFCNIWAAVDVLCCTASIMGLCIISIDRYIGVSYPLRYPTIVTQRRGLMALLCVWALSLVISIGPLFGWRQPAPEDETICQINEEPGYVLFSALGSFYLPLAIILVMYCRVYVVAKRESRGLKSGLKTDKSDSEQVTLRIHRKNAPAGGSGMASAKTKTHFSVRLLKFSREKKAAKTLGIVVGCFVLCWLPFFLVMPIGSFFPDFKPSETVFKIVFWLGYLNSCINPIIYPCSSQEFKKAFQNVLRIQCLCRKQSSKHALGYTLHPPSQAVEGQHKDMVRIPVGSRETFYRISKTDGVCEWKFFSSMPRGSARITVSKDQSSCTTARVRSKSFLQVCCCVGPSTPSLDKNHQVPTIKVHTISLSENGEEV

[6] = molecular target: T3, human α1A‐adrenoceptor; assay: ^3H‐prazosin whole‐cell radioligand binding, CHO‐α1A cells; conditions: for Kd: CHO‐α1A cells, given as log KD (negative), mean ± SEM; for Affinity selectivity ratio α1A vs α1B: higher affinity for α1A than α1B; for Affinity selectivity ratio α1A vs α1D: higher affinity for α1A than α1D
[7] = molecular target: T1, human α1D‐adrenoceptor (full length); assay: ^3H‐cAMP accumulation in the presence of 10 μM forskolin, CHO‐α1D cells; type: cell-based; conditions: CHO‐α1D cells; for cAMP (in presence of forskolin) Fold increase: fold increase of the forskolin response
[8] = molecular target: T2, human α1B‐adrenoceptor; assay: ERK1/2‐phosphorylation (Surefire Alphascreen), CHO‐α1B cells; type: cell-based; conditions: CHO‐α1B cells, for bi‐phasic responses the initial stimulatory part; for EC50: read-out: ERK1/2‐phosphorylation Log EC50 (converted); for ERK1/2‐phosphorylation % PDBu: maximal response as % PDBu response
[9] = molecular target: T3, human α1A‐adrenoceptor; assay: ^3H‐cAMP accumulation in the presence of 10 μM forskolin, CHO‐α1A cells; type: cell-based; conditions: CHO‐α1A cells; for EC50: 10 μM forskolin, read-out: cAMP accumulation (in presence of forskolin) Log EC50 (converted); for cAMP accumulation (in presence of forskolin) Fold increase: fold increase of the forskolin response
[10] = molecular target: T3, human α1A‐adrenoceptor; assay: ERK1/2‐phosphorylation (Surefire Alphascreen), CHO‐α1A cells; type: cell-based; conditions: CHO‐α1A cells, ^a bi‐phasic: initial stimulatory part; for EC50: 2–4 min, ^b also active in parent CHO cells, read-out: ERK1/2‐phosphorylation Log EC50 (converted); for ERK1/2‐phosphorylation % PDBu: % of 10 µM PDBu
[11] = molecular target: T2, human α1B‐adrenoceptor; assay: ^3H‐cAMP accumulation in the presence of 10 μM forskolin, CHO‐α1B cells; type: cell-based; conditions: CHO‐α1B cells; for cAMP accumulation (in presence of forskolin) Fold increase: fold increase of the forskolin response; for EC50: in presence of forskolin, read-out: cAMP accumulation (in presence of forskolin) Log EC50 (converted)
[12] = molecular target: T2, human α1B‐adrenoceptor; assay: Intracellular free calcium mobilization, CHO‐α1B cells; type: cell-based; conditions: CHO‐α1B cells; for EC50: given as log EC50 (negative numbers), read-out: Intracellular calcium release Log EC50 (converted); for Log efficacy ratio KD /EC50: intrinsic efficacy ratio, KD from binding / EC50 calcium; for Intracellular calcium release % ionomycin: maximal response as % of 10 µM ionomycin response
[13] = 3H‐prazosin binding Log KD, whole‐cell binding (from Table 1), log values given negative
[14] = Log KD α1D, ^3H‐prazosin whole cell binding, given as log KD (negative), mean ± SEM, 'early plateau' = specific binding not fully inhibited
[15] = Log KD α1B, ^3H‐prazosin whole cell binding, CHO‐α1B cells, given as log KD (negative), mean ± SEM
[16] = Log KD, ^3H‐prazosin binding, CHO‐α1B cells, whole‐cell binding (from Table 1), given as log KD (negative numbers)
[17] = Log KD α1A, ^3H‐prazosin whole cell binding
[18] = in presence of forskolin, log values given negative

Row | Kd [1, 13] [µM] | Kd [1, 14] [µM] | Kd [3, 15] [µM] | Kd [3, 16] [µM] | Log efficacy ratio KD /EC50 [4] | EC50 [4] [µM] | Intracellular calcium release % ionomycin [4] [%] | Affinity selectivity ratio α1A vs α1B [6] [fold] | EC50 [8] [µM] | ERK1/2‐phosphorylation % PDBu [8] [%] | EC50 [9] [µM] | cAMP accumulation (in presence of forskolin) Fold increase [9] [fold] | EC50 [10] [µM] | ERK1/2‐phosphorylation % PDBu [10] [%] | cAMP accumulation (in presence of forskolin) Fold increase [11] [fold] | EC50 [11] [µM] | EC50 [12] [µM] | Log efficacy ratio KD /EC50 [12] | Intracellular calcium release % ionomycin [12] [%] | Structure (SMILES) | cAMP accumulation (in presence of forskolin) Log EC50 [2] | also measured
1 | 2.04 | 2.04 | 1.82 | 1.82 | 1.24 | 0.117 | 11.8 ± 2.2 | 6.3 | 0.151 | 71.1 ± 7.2 | 0.0417 | 2.18 ± 0.05 | 0.00407 | 90.9 ± 4.4 | 1.65 ± 0.07 | 0.0055 | 0.00933 | 2.29 | 38.9 ± 2.9 | c1ccc2c(CC3=NCCN3)cccc2c1 [Naphazoline] | No response | Affinity selectivity ratio α1B vs α1D ([3]; left sub‐column: higher affinity for α1B than α1D): 1.1 fold; EC50 [5]: 0.269 µM; cAMP accumulation % forskolin [5]: 57.9 ± 5.7%; Kd [6, 17]: 0.288 µM; Affinity selectivity ratio α1A vs α1D [6]: 7.1 fold; cAMP (in presence of forskolin) Fold increase [7]: No response; cAMP (in presence of forskolin) Log EC50 [7, 18]: No response
2 | 3.89 | 3.89 | 44.7 | 44.7 | – | – | – | 12.9 | 0.288 | 57.7 ± 5.3 | 0.123 | 2.36 ± 0.10 | 0.0372 | 82.1 ± 3.9 | 2.01 ± 0.11 | 0.182 | 0.0891 | 2.70 | 48.8 ± 1.8 | Clc1ccc2nsnc2c1NC1=NCCN1 [Tizanidine] | No response | Affinity selectivity ratio α1B vs α1D [1]: 11.5 fold; Intracellular calcium release % Ionomycin at 100 µM ([4]; response at 100 µM ligand (no EC50 given)): 2.5 ± 0.8%; EC50 [5]: 1.66 µM; cAMP accumulation % forskolin [5]: 65.6 ± 6.5%; Kd [6, 17]: 3.47 µM; Affinity selectivity ratio α1A vs α1D [6]: 1.1 fold
3 | 56.2 | – | – | – | 1.87 | 0.759 | 23.1 ± 3.8 | >11.7 | 1.45 | 92.2 ± 3.9 | 0.813 | 2.54 ± 0.11 | 0.0977 | 83.9 ± 4.1 | 2.58 ± 0.07 | 1.48 | 0.112 | >3.95 | 60.1 ± 3.1 | C[C@H](N)[C@H](O)c1cccc(O)c1 [Metaraminol] | No response | Kd ([1]; given as log KD (negative), mean ± SEM, 'early plateau' = specific binding not fully inhibited): 56.2 µM; Affinity selectivity ratio α1A vs α1D ([1]; higher affinity for α1D than α1A): 1.5 fold; Affinity selectivity ratio α1B vs α1D [1]: >17.8 fold; IC50 ([3]; CHO‐α1B cells, printed as IC50> log value): > 1000 µM; cAMP accumulation % forskolin at 100 µM ([5]; response at 100 μM ligand, no EC50 obtained): 122.7 ± 9.8%; Kd [6]: 85.1 µM; cAMP (in presence of forskolin) Fold increase [7]: 1.19 ± 0.04; EC50 [7, 18]: 0.324 µM
